Values after ≈ are worked out from the molar mass of the structure shown.

For data set [1] the following is noted: cited from earlier work.
Data set [2] in a line: Solubility testing in phosphate buffer saline pH 7.4 (HPLC with calibration curve). It is filed as physicochemical. On the procedure:
Solubility testing was performed with the following test items and conditions: • Test items: axitinib (99.99% purity by HPLC); axitinib-N-succinoyloxymethyl prodrug (94.3% purity by HPLC); • Test media: phosphate buffer saline pH 7.4 • Incubation condition: 24 hour at 22° C. with continuous shaking • Test concentration: 1 mg/mL • Data analysis: Solubility of test item was determined by HPLC analysis with calibration curve

In the case of `CNC(=O)c1ccccc1Sc1ccc2c(/C=C/c3ccccn3)n[nH]c2c1` [Axitinib, axitinib], the literature reported solubility entry in data set [1] is “about 0.2 mcg/mL”. In data set [2] (22 °C, pH 7.4, aqueous buffer, thermodynamic from solid), this molecule displayed a solubility at 24 h below 0.78 µg/mL.

In data set [2] (phosphate buffer saline pH 7.4, 24 hour at 22° C. with continuous shaking, test concentration 1 mg/mL), `CNC(=O)c1ccccc1Sc1ccc2c(/C=C/c3ccccn3)nn(COC(=O)CCC(=O)O)c2c1` [N-Succinoyloxymethyl Prodrug, axitinib-N-succinoyloxymethyl] came in with a Solubility of 217.4 µg/mL (≈ 421 µM). Moreover, the “solubility of the prodrug enhanced (fold vs axitinib)” value in data set [2] (relative to literature reported solubility of axitinib (about 0.2 mcg/mL)) is on record as around 1100 ×.

Usually solubility stands for the concentration that dissolves in the medium under given conditions. Usually Solubility stands for the concentration that dissolves in the medium under given conditions.

The record behind these values is patent US20250092013A1, “PRODRUGS OF AXITINIB” (OCULAR THERAPEUTIX, INC., priority 2021, published 2025).
